According to patent US20260028326A1, “COMPOUND BASED ON ISOINDOLINE-SUBSTITUTED GLUTARIMIDE BACKBONE AND USE THEREOF” (GLUETACS THERAPEUTICS (SHANGHAI) CO., LTD., priority 2022, published 2026):

Assays:
Mino cells = experiment: Tumor cell proliferation IC50 (CCK-8), Mino; conditions: Homo sapiens, 72 h, read-out: IC50 for inhibiting the proliferation of tumor cells, Mino;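 also: cell viability assessed with CCK-8 reagent after compound exposure, IC50 derived from plotted growth inhibition curves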
SW620 cells = experiment: Tumor cell proliferation IC50 (CCK-8), SW620; conditions: Homo sapiens, SW-620, 96 h, read-out: IC50 for inhibiting the proliferation of tumor cells, SW620
Procedure: (§1) The tumor cells used herein were cultured in a cell culture medium listed in table A at 37° C. in an incubator with 5% CO2.
(§2) After the cells were treated with the compounds of the present disclosure for a period of time, the cell viability detection reagent was added to the culture medium for cell viability assessment according to the instructions provided with the CCK-8 kit. […] The growth inhibition of the compounds of the present disclosure on cells was plotted by Prism Graphpad software, and the IC50 values of the compounds of the present disclosure were calculated therefrom.

MV-4-11 cells = experiment: Tumor cell proliferation IC50 (CCK-8), MV-4-11; conditions: Homo sapiens, MV4-11, 96 h, read-out: IC50 for inhibiting the proliferation of tumor cells, MV-4-11
Procedure: as §1, §2

[1] = target: human Cereblon WT GST-tagged protein (Homo sapiens (Human), UniProt Q96SW2); experiment: CRBN-binding affinity, HTRF (CEREBLON BINDING kit)
Summary of the method: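 GST-tagged human WT Cereblon incubated with compound, then Thalidomide-Re tracer and anti-GST Eu antibody added. Displacement read by HTRF, reported as CRBN binding inhibition rate against blank control wells without protein.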

IKZF3 protein = IKZF3 protein (Homo sapiens (Human), UniProt Q96SW2+Q9UKT9); experiment: Western-blot assay of substrate protein degradation in hPBMC, IKZF3; assay type: cell-based; conditions: hPBMC cells, compound 500 nM, 24 hours, Western blot
MM.1S cells = experiment: Tumor cell proliferation IC50 (CCK-8), MM.1S; conditions: Homo sapiens, MM1.S, 72 h, read-out: IC50 for inhibiting the proliferation of tumor cells, MM.1S;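 also: viability of cultured cells read by CCK-8 reagent after compound exposure, growth inhibition curves fitted to derive IC50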
CCRF-CEM cells = experiment: Tumor cell proliferation IC50 (CCK-8), CCRF-CEM; conditions: Homo sapiens, 96 h, read-out: IC50 for inhibiting the proliferation of tumor cells, CCRF-CEM;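 also: cell viability measured with CCK-8 reagent after compound treatment, IC50 taken from plotted growth inhibition curves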
MDA-MB-231 cells = experiment: Tumor cell proliferation IC50 (CCK-8), MDA-MB-231; conditions: Homo sapiens, MDA-MB-231, 96 h, read-out: IC50 for inhibiting the proliferation of tumor cells, MDA-MB-231
Procedure: Prior to experimentation, all cells used were correctly identified by STR profiling, and tested negative for mycoplasma through routine screenings.
as §2

MM.1R cells = experiment: Tumor cell proliferation IC50 (CCK-8), MM.1R; conditions: Homo sapiens, 72 h, read-out: IC50 for inhibiting the proliferation of tumor cells, MM.1R
Procedure: as §1, §2

IKZF1 protein = IKZF1 protein (Homo sapiens (Human), UniProt Q13422+Q96SW2); experiment: Western-blot assay of substrate protein degradation in hPBMC, IKZF1; assay type: cell-based; conditions: hPBMC cells, compound 500 nM, 24 hours, Western blot
TMD8 cells = experiment: Tumor cell proliferation IC50 (CCK-8), TMD8; conditions: Homo sapiens, TMD8, 72 h, read-out: IC50 for inhibiting the proliferation of tumor cells, TMD8
Procedure: as §1, §2

Ramos cells = experiment: Tumor cell proliferation IC50 (CCK-8), Ramos; conditions: Homo sapiens, 72 h, read-out: IC50 for inhibiting the proliferation of tumor cells, Ramos
Procedure: as §1, §2

[2] = Pharmacokinetic study, oral administration, mouse plasma; assay type: in vivo, mice; conditions: p.o. 10 mg/kg
Procedure: The experimental animals used can be those commonly used in pharmacokinetic experiments, e.g., adult and healthy rodents (e.g., mice, rats (such as Sprague-Dawley (SD) rats), guinea pigs) or non-rodents (rabbits, dogs, and monkeys). In the present disclosure, mice were used as the experimental animals.
The experimental animals were divided into two groups: a control group (for collecting blank plasma) and an orally administered group (dosed at 10 mg/kg or 30 mg/kg). Blood samples were collected at predetermined sampling time points after administration, such as 0.25 h, 0.5 h, 1 h, 2 h, 4 h, 8 h, and 24 h post-dosing. Blank plasma was collected from the control group.
Plasma samples were preprocessed before analysis: 10 μL of 50% acetonitrile and 200 μL of internal standard solution (containing 50 ng/mL dexamethasone in acetonitrile) were added to 10 μL of plasma samples. For the blank control group, the same volume of acetonitrile was added instead of the internal standard. The processed samples were vortexed, centrifuged, and the supernatant was taken for LC-MS/MS injection analysis.
After preparing standard curves and quality control (QC) samples, the concentrations of the compounds in the plasma samples were determined by LC-MS/MS analysis. Based on the plasma concentration data obtained from LC-MS/MS analysis, the pharmacokinetic parameters of the test compounds were calculated using the non-compartmental model in the pharmacokinetic calculation software WinNonlin v8.1.

Daudi cells = experiment: Tumor cell proliferation IC50 (CCK-8), Daudi; conditions: Homo sapiens, read-out: IC50 for inhibiting the proliferation of tumor cells, Daudi;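 also: cell viability read with CCK-8 reagent after compound exposure of Daudi cells, IC50 derived from plotted growth inhibition curves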
Kasumi-1 cells = experiment: Tumor cell proliferation IC50 (CCK-8), Kasumi-1; conditions: Homo sapiens, Kasumi 1, 72 h, read-out: IC50 for inhibiting the proliferation of tumor cells, Kasumi-1
Procedure: as §1, §2

GSPT1 protein = GSPT1 protein (Homo sapiens (Human), UniProt P15170+Q96SW2); experiment: Western-blot assay of substrate protein degradation in hPBMC, GSPT1; assay type: cell-based; conditions: hPBMC cells, compound 500 nM, 24 hours, Western blot
Chain of GSPT1 protein (P15170 whole entry): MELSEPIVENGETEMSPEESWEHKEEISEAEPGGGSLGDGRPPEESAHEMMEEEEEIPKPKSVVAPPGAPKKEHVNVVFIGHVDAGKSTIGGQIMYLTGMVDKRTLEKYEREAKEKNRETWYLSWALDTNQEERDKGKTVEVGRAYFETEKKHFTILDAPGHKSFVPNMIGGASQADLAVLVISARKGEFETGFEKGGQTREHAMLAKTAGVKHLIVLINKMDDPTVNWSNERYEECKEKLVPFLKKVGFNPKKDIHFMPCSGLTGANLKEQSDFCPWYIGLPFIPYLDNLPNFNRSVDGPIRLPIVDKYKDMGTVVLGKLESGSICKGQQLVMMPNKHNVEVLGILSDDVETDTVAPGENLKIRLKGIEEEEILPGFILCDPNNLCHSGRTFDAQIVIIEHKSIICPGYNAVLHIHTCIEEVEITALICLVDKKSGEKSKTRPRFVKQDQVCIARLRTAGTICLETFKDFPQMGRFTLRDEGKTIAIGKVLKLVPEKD
Chain of GSPT1 protein (Q96SW2 whole entry): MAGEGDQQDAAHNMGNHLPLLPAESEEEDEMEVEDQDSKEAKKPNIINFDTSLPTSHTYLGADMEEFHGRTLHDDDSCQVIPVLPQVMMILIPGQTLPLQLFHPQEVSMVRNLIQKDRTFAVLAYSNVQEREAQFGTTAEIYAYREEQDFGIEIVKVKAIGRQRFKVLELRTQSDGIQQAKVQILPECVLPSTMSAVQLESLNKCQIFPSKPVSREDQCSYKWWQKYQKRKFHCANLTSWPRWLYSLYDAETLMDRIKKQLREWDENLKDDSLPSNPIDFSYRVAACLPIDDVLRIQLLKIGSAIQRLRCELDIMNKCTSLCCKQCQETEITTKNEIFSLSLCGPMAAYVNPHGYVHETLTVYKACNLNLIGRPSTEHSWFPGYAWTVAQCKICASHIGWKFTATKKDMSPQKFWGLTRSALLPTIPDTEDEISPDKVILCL
Chain of GSPT1 protein (Q16531 whole entry partner): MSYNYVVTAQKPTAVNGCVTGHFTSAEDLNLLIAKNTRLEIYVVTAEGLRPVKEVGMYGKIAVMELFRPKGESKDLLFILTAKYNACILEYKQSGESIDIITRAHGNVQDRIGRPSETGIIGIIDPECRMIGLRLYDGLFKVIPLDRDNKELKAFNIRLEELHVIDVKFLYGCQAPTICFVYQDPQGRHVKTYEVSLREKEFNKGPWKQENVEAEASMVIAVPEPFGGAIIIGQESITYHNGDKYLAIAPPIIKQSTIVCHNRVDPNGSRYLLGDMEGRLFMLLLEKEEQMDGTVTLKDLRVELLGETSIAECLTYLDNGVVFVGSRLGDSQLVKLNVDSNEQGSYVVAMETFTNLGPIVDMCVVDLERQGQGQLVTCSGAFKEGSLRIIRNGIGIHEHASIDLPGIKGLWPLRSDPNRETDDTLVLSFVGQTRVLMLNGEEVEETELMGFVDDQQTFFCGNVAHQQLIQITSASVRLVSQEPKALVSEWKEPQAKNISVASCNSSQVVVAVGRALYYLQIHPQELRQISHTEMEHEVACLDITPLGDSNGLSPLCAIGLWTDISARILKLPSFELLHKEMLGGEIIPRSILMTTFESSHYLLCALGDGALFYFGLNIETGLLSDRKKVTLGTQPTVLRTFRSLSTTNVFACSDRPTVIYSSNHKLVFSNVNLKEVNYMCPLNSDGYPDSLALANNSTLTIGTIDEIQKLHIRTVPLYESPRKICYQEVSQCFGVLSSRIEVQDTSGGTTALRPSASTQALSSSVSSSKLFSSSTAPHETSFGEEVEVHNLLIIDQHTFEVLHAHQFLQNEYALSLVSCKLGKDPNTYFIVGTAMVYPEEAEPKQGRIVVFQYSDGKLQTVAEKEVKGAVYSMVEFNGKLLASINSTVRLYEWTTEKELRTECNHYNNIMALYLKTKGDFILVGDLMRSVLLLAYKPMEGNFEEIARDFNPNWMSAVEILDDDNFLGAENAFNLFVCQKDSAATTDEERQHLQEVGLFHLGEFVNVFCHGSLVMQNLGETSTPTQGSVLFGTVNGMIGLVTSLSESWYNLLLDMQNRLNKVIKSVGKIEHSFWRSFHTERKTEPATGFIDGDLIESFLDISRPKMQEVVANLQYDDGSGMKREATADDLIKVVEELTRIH

Chain of IKZF1 protein (Q13422 whole entry): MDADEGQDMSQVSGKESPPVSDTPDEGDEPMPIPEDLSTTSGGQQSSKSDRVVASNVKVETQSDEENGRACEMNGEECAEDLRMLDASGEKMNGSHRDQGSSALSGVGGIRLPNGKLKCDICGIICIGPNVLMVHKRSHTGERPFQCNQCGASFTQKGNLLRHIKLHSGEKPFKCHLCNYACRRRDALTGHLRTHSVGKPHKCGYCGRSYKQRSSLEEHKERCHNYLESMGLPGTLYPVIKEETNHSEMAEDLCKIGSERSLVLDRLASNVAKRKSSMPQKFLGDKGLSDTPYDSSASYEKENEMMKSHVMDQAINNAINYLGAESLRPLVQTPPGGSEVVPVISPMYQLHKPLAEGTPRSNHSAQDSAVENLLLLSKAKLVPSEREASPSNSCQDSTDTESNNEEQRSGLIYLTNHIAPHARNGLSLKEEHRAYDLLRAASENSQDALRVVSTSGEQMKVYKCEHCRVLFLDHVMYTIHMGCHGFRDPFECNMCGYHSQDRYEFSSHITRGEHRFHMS
Chain of IKZF1 protein (Q96SW2 whole entry): as the sequence (Q96SW2 whole entry) above
Chain of IKZF1 protein (Q16531 whole entry partner): as the sequence (Q16531 whole entry partner) above
Chain of IKZF3 protein (Q9UKT9 whole entry): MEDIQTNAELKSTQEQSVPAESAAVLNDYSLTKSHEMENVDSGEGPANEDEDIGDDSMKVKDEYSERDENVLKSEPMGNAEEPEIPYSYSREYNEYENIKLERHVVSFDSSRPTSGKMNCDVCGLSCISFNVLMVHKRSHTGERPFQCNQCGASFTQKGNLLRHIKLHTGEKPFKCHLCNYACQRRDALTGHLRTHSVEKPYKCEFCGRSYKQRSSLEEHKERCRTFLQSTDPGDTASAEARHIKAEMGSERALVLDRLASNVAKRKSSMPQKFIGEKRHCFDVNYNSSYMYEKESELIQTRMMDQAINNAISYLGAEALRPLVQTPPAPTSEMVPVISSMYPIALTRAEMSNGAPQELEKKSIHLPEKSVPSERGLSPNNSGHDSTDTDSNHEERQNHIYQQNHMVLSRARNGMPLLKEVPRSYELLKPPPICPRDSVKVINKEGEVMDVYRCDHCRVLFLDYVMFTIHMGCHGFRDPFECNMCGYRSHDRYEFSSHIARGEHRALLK
Chain of IKZF3 protein (Q96SW2 whole entry): as the sequence (Q96SW2 whole entry) above
Chain of IKZF3 protein (Q16531 whole entry partner): as the sequence (Q16531 whole entry partner) above
Chain of human Cereblon WT GST-tagged protein (Q96SW2 whole entry): as the sequence (Q96SW2 whole entry) above

Structure (SMILES) | IC50 (Mino cells) [nM] | IC50 (SW620 cells) [nM] | IC50 (MV-4-11 cells) [nM] | IC50 [1] [nM] | IC50 (MM.1S cells) [nM] | IC50 (CCRF-CEM cells) [nM] | IC50 (MDA-MB-231 cells) [nM] | IC50 (MM.1R cells) [nM] | IC50 (TMD8 cells) [nM] | IC50 (Ramos cells) [nM] | AUC(0-t) [2] [ng·h/mL] | IC50 (Daudi cells) [nM] | IC50 (Kasumi-1 cells) [nM] | residual substrate protein level, IKZF3 (IKZF3 protein) | residual substrate protein level, IKZF1 (IKZF1 protein) | residual substrate protein level, GSPT1 (GSPT1 protein)
CC1(C)CCC(CN2CCN(Cc3ccc4c(c3)CN(C3CCC(=O)NC3=O)C4=O)CC2)=C(c2ccc(Cl)cc2)C1 (centres unmarked) [GT-02785, 3-(5-((4-((4′-chloro-5,5-dimethyl-3,4,5,6-tetrahydro-[1,1′-biphenyl]-2-yl)methyl)piperazin-1-yl)methyl)-1-oxoisoindolin-2-yl)piperidine-2,6-dione] | 5 to 10 | 50 to 100 | 24 | 3070 | < 5 | 10 to 50 | 50 to 100 | 10 to 50 | 100 to 500 | 100 to 500 | > 500 | 159 | 50 to 100 | A (A represents a residual substrate protein level of <50%) | A (A represents a residual substrate protein level of <50%) | A (A represents a residual substrate protein level of <50%)
CC1(C)CCC(CN2CCN(Cc3ccc4c(c3)CN(C3CCC(=O)NC3=O)C4=O)CC2)=C(c2ccc(F)cc2)C1 (centres unmarked) [GT-03454, 3-(5-((4-((4′-fluoro-5,5-dimethyl-3,4,5,6-tetrahydro-[1,1′-biphenyl]-2-yl)methyl)piperazin-1-yl)methyl)-1-oxoisoindolin-2-yl)piperidine-2,6-dione] | – | – | – | 410 | – | 10 to 50 | – | 100 to 500 | 1000 to 5000 | 1000 to 5000 | – | – | – | A (A represents a residual substrate protein level of <50%) | A (A represents a residual substrate protein level of <50%) | A (A represents a residual substrate protein level of <50%)
CC1(C)CCC(CN2CCN(Cc3cc(F)c4c(c3)CN(C3CCC(=O)NC3=O)C4=O)CC2)=C(c2ccc(Cl)cc2)C1 (centres unmarked) [GT-03469, 3-(5-((4-((4′-chloro-5,5-dimethyl-3,4,5,6-tetrahydro-[1,1′-biphenyl]-2-yl)methyl)piperazin-1-yl)methyl)-7-fluoro-1-oxoisoindolin-2-yl)piperidine-2,6-dione] | – | – | – | 2120 | – | 1000 to 5000 | 100 to 500 | – | – | – | – | – | – | – | – | –
CC1(C)CCC(CN2CCN(Cc3ccc4c(c3F)CN(C3CCC(=O)NC3=O)C4=O)CC2)=C(c2ccc(F)cc2)C1 (centres unmarked) [GT-05390, 3-(4-fluoro-5-((4-((4′-fluoro-5,5-dimethyl-3,4,5,6-tetrahydro-[1,1′-biphenyl]-2-yl)methyl)piperazin-1-yl)methyl)-1-oxoisoindolin-2-yl)piperidine-2,6-dione] | 10 to 50 | – | 100 to 500 | 500 | 10 to 50 | 50 to 100 | – | – | – | – | – | – | – | A (A represents a residual substrate protein level of <50%) | A (A represents a residual substrate protein level of <50%) | A (A represents a residual substrate protein level of <50%)
CC1(C)CCC(CN2CC3CCC(C2)N3Cc2cc3c(cc2F)C(=O)N(C2CCC(=O)NC2=O)C3)=C(c2ccc(Cl)cc2)C1 (centres unmarked) [GT-05494, 3-(5-((3-((4′-chloro-5,5-dimethyl-3,4,5,6-tetrahydro-[1,1′-biphenyl]-2-yl)methyl)-3,8-diazabicyclo[3.2.1]octan-8-yl)methyl)-6-fluoro-1-oxoisoindolin-2-yl)piperidine-2,6-dione] | – | – | 100 to 500 | – | 500 to 1000 | 100 to 500 | – | – | – | – | – | – | – | A (A represents a residual substrate protein level of <50%) | A (A represents a residual substrate protein level of <50%) | A (A represents a residual substrate protein level of <50%)
O=C1CCC(N2C(=O)c3ccc(CN4CCN(Cc5ccccc5-c5ccc(Cl)cc5)CC4)cc3C2=O)C(=O)N1 (centres unmarked) [GT-05497, 5-((4-((4′-chloro-[1,1′-biphenyl]-2-yl)methyl)piperazin-1-yl)methyl)-2-(2,6-dioxopiperidin-3-yl)isoindoline-1,3-dione] | 100 to 500 | – | 100 to 500 | – | 100 to 500 | 50 to 100 | – | – | – | – | – | 500 to 1000 | 100 to 500 | A (A represents a residual substrate protein level of <50%) | B (B represents a residual substrate protein level of >50%) | A (A represents a residual substrate protein level of <50%)

The next lines start with results.

IC50 (Mino cells) [nM] | IC50 (SW620 cells) [nM] | IC50 (MV-4-11 cells) [nM] | IC50 [1] [nM] | IC50 (MM.1S cells) [nM] | IC50 (CCRF-CEM cells) [nM] | IC50 (MDA-MB-231 cells) [nM] | IC50 (MM.1R cells) [nM] | IC50 (TMD8 cells) [nM] | IC50 (Ramos cells) [nM] | AUC(0-t) [2] [ng·h/mL] | IC50 (Daudi cells) [nM] | IC50 (Kasumi-1 cells) [nM] | Structure (SMILES) | residual substrate protein level, IKZF3 (IKZF3 protein) | residual substrate protein level, IKZF1 (IKZF1 protein) | residual substrate protein level, GSPT1 (GSPT1 protein)
5 to 10 | – | < 5 | 570 | 5 to 10 | < 5 | – | – | – | – | – | 10 to 50 | 10 to 50 | CC1(C)CCC(CN2CCN(Cc3cc4c(cc3F)C(=O)N(C3CCC(=O)NC3=O)C4)CC2)=C(c2ccc(F)cc2)C1 (centres unmarked) [GT-05391, 3-(6-fluoro-5-((4-((4′-fluoro-5,5-dimethyl-3,4,5,6-tetrahydro-[1,1′-biphenyl]-2-yl)methyl)piperazin-1-yl)methyl)-1-oxoisoindolin-2-yl)piperidine-2,6-dione] | A (A represents a residual substrate protein level of <50%) | A (A represents a residual substrate protein level of <50%) | A (A represents a residual substrate protein level of <50%)
10 to 50 | – | 10 to 50 | 520 | 10 to 50 | 5 to 10 | – | – | – | – | – | 100 to 500 | 10 to 50 | O=C1CCC(N2Cc3cc(CC4CCN(C(=O)c5ccccc5-c5ccc(Cl)cc5)CC4)ccc3C2=O)C(=O)N1 (centres unmarked) [GT-05467, 3-(5-((1-(4′-chloro-[1,1′-biphenyl]-2-carbonyl)piperidin-4-yl)methyl)-1-oxoisoindolin-2-yl)piperidine-2,6-dione] | B (B represents a residual substrate protein level of >50%) | B (B represents a residual substrate protein level of >50%) | A (A represents a residual substrate protein level of <50%)
5 to 10 | – | 5 to 10 | 330 | 5 to 10 | 5 to 10 | – | – | – | – | – | 10 to 50 | 10 to 50 | O=C1CCC(N2Cc3cc(C=C4CN(C(=O)c5ccccc5-c5ccc(Cl)cc5)C4)ccc3C2=O)C(=O)N1 (centres unmarked) [GT-05482, 3-(5-((1-(4′-chloro-[1,1′-biphenyl]-2-carbonyl)azetidin-3-ylidene)methyl)-1-oxoisoindolin-2-yl)piperidine-2,6-dione] | B (B represents a residual substrate protein level of >50%) | B (B represents a residual substrate protein level of >50%) | A (A represents a residual substrate protein level of <50%)
